Literature values, collected in patent US8765768B2, “Heterocyclic compounds and their uses” (Amgen Inc., priority 2010, dated 2014).

Tests used:
[1] = tested on: mouse model of rheumatoid arthritis; conditions: in vivo
[2] = tested on: model of systemic lupus erythematosis; conditions: in vivo
p110δ = molecular target: T1, p110δ (Homo sapiens, UniProt O00329)
T1 sequence (O00329 1-1044): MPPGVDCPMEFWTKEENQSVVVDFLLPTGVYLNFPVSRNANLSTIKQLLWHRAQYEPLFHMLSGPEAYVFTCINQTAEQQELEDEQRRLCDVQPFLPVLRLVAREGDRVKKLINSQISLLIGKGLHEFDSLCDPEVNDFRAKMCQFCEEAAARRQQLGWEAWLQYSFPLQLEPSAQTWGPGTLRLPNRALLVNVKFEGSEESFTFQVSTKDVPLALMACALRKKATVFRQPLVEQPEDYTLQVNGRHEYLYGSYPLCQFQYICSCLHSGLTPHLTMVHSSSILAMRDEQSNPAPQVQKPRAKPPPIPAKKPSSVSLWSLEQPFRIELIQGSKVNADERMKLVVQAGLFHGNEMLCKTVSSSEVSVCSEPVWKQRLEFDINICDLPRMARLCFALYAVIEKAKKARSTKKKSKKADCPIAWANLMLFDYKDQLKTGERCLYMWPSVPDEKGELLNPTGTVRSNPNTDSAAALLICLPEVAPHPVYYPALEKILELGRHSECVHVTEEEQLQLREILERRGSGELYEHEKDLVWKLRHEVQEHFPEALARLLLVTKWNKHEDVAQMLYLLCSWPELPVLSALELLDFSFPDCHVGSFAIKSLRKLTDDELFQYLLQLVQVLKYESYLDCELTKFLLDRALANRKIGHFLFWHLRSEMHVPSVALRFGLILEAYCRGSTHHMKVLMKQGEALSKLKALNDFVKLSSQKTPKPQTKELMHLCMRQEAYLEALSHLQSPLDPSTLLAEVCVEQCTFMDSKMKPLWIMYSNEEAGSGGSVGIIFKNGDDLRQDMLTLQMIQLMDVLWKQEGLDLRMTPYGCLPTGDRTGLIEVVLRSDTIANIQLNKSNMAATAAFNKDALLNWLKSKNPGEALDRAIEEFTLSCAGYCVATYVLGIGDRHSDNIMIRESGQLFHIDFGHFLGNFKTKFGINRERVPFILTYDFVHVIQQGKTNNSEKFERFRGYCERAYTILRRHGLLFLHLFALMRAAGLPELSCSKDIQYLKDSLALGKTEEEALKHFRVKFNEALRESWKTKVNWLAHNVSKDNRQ

[3] = tested on: ovalbumin-induced airway inflammation

O=C1NC(=O)/C(=C\c2ccc3nccnc3c2)S1 [AS 605240]
efficacy in a mouse model of rheumatoid arthritis [1]: efficacious | onset of disease in a model of systemic lupus erythematosis [2]: delay onset of disease

Cc1ccccc1-n1c(Cn2cnc3c(N)ncnc32)nc2cccc(C)c2c1=O [IC87114]
inhibits p110δ (p110δ): high nanomolar range (triple digit) | inflammation and disease in a murine model of asthma [3]: significantly ameliorate inflammation and disease | activity against any protein kinases tested (protein kinases): no activity
